Data from patent US10870647B2, “Imidazopyridine derivative, method for preparing same, and pharmaceutical composition containing same as active ingredient for preventing or treating cancer” (DAEGU-GYEONGBUK MEDICAL INNOVATION FOUNDATION, priority 2016, dated 2020).

How the values were obtained:
Assay in all cases: Kinase selectivity, scanMAX Kinase assay panel (DiscoverX), % control at 1 uM
Assay type in all cases: binding
[1] = target: T1, scanMAX Kinase assay panel (Homo sapiens, UniProt Q00535); details: CDK5; 1 uM; read-out: Percent Control (%)
T1 construct: purchased DiscoverX
T1 sequence (Q00535 whole entry): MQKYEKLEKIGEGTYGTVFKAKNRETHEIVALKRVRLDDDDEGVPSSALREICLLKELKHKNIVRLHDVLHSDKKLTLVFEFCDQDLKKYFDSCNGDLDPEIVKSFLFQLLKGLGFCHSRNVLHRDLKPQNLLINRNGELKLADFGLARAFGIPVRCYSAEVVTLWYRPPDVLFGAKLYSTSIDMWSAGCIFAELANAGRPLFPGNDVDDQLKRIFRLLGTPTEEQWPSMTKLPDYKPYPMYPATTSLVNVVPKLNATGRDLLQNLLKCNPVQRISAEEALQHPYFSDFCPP
Procedure, shortened: (§1)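 A single concentration of 1 uM, in DMSO, is applied across the kinase panel. Activity against an individual enzyme is assigned where % control is less than 35.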

[2] = target: T2, scanMAX Kinase assay panel (Homo sapiens, UniProt Q15835); details: GRK1; 1 uM; read-out: Percent Control (%)
T2 construct: purchased DiscoverX
T2 sequence (Q15835 1-563): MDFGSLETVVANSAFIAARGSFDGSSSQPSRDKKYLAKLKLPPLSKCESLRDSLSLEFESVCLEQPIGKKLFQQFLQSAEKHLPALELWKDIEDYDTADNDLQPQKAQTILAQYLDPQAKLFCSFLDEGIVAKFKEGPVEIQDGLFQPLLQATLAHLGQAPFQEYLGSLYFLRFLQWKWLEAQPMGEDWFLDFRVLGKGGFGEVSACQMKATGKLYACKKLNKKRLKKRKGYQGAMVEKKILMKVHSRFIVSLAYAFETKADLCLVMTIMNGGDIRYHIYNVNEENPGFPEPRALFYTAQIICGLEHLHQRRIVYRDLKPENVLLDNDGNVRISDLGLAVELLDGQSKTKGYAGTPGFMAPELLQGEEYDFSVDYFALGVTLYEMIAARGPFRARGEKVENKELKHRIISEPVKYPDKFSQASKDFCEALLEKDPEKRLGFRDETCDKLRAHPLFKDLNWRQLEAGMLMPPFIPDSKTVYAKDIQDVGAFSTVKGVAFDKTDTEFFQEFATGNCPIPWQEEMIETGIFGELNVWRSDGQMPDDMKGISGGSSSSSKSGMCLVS
Procedure, shortened: as §1

[3] = target: T3, scanMAX Kinase assay panel (Homo sapiens, UniProt Q9Y6E0); details: MST3; 1 uM; read-out: Percent Control (%)
T3 construct: purchased DiscoverX
T3 sequence (Q9Y6E0 whole entry): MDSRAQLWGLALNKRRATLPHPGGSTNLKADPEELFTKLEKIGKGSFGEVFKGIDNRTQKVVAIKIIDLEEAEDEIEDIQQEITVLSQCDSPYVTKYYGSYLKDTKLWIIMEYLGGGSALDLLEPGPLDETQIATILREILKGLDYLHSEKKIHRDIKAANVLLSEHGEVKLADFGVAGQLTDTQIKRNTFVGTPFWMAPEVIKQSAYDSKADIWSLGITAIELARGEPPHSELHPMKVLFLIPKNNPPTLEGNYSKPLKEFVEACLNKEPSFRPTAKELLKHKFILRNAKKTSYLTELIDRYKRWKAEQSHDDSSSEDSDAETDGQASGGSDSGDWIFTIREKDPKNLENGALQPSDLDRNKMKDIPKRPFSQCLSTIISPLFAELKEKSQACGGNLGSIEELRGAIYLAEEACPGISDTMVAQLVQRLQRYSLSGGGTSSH
Procedure, shortened: as §1

[4] = target: T4, scanMAX Kinase assay panel (Homo sapiens, UniProt O60285); details: ARK5; 1 uM; read-out: Percent Control (%)
T4 construct: purchased DiscoverX
T4 sequence (O60285 1-661): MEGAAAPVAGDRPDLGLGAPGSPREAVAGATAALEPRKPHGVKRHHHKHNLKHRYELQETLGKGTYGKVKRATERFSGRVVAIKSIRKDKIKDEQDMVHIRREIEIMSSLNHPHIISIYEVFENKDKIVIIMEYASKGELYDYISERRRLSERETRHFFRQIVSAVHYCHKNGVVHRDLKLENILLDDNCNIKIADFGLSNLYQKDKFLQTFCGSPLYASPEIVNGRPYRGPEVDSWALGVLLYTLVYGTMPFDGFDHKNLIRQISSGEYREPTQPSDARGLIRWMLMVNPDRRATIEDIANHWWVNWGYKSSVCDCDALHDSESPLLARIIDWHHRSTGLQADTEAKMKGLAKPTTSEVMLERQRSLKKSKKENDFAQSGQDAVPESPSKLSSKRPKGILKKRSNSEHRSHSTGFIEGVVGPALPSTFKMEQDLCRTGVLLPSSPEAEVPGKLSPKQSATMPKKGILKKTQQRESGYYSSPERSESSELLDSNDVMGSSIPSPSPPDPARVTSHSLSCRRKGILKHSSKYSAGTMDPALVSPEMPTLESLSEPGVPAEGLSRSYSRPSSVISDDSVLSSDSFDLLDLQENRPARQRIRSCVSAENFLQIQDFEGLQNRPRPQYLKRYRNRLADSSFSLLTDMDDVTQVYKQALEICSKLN
Procedure, shortened: as §1

[5] = target: T5, scanMAX Kinase assay panel (Homo sapiens, UniProt O95835); details: LATS1; 1 uM; read-out: Percent Control (%)
T5 construct: purchased DiscoverX
T5 sequence (O95835 1-1130): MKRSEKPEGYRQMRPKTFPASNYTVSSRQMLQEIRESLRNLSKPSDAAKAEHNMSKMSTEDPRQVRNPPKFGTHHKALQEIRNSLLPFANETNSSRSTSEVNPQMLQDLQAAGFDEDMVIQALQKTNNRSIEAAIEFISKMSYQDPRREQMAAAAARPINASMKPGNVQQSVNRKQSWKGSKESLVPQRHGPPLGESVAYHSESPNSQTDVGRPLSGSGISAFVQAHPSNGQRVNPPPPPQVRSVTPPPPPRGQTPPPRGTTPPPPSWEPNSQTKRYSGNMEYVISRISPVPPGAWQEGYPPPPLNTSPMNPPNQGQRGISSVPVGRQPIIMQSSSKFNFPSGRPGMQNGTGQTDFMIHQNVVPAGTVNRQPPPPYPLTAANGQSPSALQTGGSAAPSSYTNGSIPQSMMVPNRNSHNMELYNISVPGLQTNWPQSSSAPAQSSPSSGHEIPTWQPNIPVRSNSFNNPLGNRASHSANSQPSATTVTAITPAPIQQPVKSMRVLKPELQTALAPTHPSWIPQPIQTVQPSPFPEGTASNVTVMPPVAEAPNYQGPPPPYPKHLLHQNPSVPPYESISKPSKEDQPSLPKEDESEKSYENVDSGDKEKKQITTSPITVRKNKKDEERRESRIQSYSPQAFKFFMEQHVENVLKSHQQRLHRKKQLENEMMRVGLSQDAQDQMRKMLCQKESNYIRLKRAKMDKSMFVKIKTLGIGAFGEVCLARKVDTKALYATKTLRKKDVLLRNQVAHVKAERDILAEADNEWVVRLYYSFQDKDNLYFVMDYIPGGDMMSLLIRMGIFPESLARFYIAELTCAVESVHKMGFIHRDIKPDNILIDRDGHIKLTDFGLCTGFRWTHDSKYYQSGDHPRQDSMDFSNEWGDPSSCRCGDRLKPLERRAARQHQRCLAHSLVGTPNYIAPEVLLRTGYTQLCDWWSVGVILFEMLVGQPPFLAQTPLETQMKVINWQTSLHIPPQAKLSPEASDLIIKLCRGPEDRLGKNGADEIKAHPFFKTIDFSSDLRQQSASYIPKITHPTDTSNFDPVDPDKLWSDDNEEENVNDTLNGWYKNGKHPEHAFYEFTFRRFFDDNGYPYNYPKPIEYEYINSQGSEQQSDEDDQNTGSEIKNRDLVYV
Procedure, shortened: as §1

[6] = target: T6, scanMAX Kinase assay panel (Homo sapiens, UniProt P22694); details: PKAC-beta; 1 uM; read-out: Percent Control (%)
T6 construct: purchased DiscoverX
Procedure, shortened: as §1

Row | SMILES | remaining binding at 1 µM [1] [%] | remaining binding at 1 µM [2] [%] | remaining binding at 1 µM [3] [%] | remaining binding at 1 µM [4] [%] | remaining binding at 1 µM [5] [%] | remaining binding at 1 µM [6] [%]
1 | Cc1ccc(C(=O)Nc2ccc(CN3CCN(C)CC3)c(C(F)(F)F)c2)cc1C#Cc1cnc2c(Nc3cnn(C)c3)cccn12 [Example 1, 4-methyl-3-((8-((1-methyl-1H-pyrazol-4-yl)amino)imidazo[1,2-a]pyridin-3-yl)ethynyl)-N-(4-((4-methylpiperazin-1-yl)methyl)-3-(trifluoromethyl)phenyl)benzamide] | 30 | 65 | 62 | 99 | 40 | 34
2 | Cc1cn(-c2cc(NC(=O)c3ccc(C)c(C#Cc4cnc5c(Nc6cnn(C)c6)cccn45)c3)cc(C(F)(F)F)c2)cn1 [Example 12, 4-methyl-N-(3-(4-methyl-1H-imidazol-1-yl)-5-(trifluoromethyl)phenyl)-3-((8-((1-methyl-1H-pyrazol-4-yl)amino)imidazo[1,2-a]pyridin-3-yl)ethynyl)benzamide] | 89 | 85 | 86 | 100 | 96 | 87
3 | Cc1ccc(NC(=O)C2(C(=O)Nc3ccc(F)cc3)CC2)cc1C#Cc1cnc2c(Nc3cnn(C(C)C)c3)cccn12 [Example 78] | 100 | 99 | 100 | 94 | 82 | 98
